According to ChEMBL document CHEMBL4376817, “Drug Discovery Targeting Anaplastic Lymphoma Kinase (ALK)” (J Med Chem, 2019):

Tests used:
[1] = biological target: Vascular endothelial growth factor receptor 2 (Homo sapiens, UniProt P35968)
[2] = biological target: T1, ALK tyrosine kinase receptor (Homo sapiens, UniProt Q9UM73)
IMR-32 = test: Cytotoxicity against human IMR32 cells; type: functional, cell-based
SH-SY5Y = test: Cytotoxicity against human SH-SY5Y cells; type: functional, cell-based
physchem = settings: octanol/water
NCI-H3122 [3] = test: cells; settings: Homo sapiens
[4] = biological target: Hepatocyte growth factor receptor (Homo sapiens, UniProt P08581); test: Inhibition of c-MET (unknown origin) by kinome scan-based assay
Chain of Hepatocyte growth factor receptor (P08581 whole entry): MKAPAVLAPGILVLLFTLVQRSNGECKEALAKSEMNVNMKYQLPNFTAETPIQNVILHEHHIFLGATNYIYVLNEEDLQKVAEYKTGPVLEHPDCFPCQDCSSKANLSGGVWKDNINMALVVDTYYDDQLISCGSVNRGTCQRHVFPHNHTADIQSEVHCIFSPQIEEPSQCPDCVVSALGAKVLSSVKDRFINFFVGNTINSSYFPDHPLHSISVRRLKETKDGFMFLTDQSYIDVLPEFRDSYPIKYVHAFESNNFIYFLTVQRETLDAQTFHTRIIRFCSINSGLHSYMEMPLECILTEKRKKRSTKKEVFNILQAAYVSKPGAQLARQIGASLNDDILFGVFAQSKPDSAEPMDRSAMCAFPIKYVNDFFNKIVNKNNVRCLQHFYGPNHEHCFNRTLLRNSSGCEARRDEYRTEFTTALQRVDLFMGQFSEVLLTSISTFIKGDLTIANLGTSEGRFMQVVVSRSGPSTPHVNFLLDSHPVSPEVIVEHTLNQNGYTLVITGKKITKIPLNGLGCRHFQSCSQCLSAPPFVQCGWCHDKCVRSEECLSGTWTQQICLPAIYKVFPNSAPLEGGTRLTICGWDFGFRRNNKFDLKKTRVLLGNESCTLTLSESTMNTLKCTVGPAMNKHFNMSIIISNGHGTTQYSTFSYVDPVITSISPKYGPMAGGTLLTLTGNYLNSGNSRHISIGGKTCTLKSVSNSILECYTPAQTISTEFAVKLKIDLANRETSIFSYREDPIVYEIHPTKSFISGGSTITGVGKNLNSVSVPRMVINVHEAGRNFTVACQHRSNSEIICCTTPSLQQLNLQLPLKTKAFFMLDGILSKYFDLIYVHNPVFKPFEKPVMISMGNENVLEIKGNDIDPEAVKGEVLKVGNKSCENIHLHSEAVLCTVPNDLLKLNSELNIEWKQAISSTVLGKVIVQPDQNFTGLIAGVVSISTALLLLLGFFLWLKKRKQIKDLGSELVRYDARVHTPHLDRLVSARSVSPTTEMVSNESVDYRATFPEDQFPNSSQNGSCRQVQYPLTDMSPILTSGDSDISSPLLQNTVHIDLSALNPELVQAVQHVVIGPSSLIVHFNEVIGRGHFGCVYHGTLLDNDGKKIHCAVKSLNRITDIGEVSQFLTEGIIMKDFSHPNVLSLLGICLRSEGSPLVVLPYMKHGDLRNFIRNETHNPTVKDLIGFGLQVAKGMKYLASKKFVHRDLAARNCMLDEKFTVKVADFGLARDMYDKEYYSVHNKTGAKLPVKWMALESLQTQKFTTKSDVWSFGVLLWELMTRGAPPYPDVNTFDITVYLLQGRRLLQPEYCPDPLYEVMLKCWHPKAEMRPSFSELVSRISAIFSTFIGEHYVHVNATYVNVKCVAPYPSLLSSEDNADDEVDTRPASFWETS

NCI-H3122 [5] = test: Cytotoxicity against human NCI-H3122 cells harboring EML4-ALK E13;A20 mutant incubated for 72 hrs by Cell titer blue assay; type: functional, cell-based; settings: NCI-H3122, 72 h
NCI-H3122 [6] = test: Potency index, ratio of crizotinib IC50 to test compound IC50 for cytotoxicity against human NCI-H3122 cells harboring EML4-ALK E13;A20 mutant; type: functional
[7] = biological target: T1, ALK tyrosine kinase receptor; remark: listed apart in the source

T1 sequence (Q9UM73 whole entry): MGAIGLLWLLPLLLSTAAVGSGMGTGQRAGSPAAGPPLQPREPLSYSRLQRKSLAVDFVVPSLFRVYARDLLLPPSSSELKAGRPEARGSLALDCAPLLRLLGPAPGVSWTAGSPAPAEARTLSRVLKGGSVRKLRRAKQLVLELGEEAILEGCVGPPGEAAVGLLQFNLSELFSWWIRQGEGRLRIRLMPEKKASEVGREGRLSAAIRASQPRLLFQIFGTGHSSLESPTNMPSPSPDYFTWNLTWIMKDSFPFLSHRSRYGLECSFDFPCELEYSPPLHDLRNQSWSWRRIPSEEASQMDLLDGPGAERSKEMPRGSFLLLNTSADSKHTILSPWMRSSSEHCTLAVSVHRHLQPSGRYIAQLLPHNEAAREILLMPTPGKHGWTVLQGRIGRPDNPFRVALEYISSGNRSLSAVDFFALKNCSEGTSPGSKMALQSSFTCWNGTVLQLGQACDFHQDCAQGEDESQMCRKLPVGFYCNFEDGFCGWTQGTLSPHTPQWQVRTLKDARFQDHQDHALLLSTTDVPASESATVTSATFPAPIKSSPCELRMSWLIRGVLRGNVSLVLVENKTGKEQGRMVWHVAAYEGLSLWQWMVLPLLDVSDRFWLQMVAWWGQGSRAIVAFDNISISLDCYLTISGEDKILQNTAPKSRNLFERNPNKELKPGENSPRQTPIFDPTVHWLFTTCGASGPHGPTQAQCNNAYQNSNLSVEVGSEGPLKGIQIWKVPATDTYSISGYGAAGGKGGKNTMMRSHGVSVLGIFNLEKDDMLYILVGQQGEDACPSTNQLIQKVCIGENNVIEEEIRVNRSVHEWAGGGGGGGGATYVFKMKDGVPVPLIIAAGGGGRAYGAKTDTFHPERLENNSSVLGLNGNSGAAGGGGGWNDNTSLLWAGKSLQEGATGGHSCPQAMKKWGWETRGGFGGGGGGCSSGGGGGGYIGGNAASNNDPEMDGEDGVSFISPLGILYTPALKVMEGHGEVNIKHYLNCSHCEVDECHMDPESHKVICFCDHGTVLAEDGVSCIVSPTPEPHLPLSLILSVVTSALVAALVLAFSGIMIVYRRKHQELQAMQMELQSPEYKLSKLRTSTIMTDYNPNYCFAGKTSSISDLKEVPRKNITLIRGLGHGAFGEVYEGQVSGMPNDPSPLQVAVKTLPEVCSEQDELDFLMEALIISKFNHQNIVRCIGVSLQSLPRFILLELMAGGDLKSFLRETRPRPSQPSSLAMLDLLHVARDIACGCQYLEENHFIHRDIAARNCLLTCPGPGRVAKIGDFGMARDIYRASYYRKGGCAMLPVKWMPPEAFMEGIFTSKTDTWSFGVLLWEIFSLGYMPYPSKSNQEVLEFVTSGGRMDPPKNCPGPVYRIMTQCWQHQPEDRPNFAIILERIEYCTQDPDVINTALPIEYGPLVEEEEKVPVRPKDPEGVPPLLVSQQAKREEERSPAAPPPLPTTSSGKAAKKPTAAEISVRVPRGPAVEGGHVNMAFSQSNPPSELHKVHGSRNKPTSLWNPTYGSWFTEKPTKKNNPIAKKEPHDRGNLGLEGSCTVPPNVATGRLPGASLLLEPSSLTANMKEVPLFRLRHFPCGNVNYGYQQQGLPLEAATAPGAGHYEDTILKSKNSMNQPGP
Chain of Vascular endothelial growth factor receptor 2 (P35968 whole entry): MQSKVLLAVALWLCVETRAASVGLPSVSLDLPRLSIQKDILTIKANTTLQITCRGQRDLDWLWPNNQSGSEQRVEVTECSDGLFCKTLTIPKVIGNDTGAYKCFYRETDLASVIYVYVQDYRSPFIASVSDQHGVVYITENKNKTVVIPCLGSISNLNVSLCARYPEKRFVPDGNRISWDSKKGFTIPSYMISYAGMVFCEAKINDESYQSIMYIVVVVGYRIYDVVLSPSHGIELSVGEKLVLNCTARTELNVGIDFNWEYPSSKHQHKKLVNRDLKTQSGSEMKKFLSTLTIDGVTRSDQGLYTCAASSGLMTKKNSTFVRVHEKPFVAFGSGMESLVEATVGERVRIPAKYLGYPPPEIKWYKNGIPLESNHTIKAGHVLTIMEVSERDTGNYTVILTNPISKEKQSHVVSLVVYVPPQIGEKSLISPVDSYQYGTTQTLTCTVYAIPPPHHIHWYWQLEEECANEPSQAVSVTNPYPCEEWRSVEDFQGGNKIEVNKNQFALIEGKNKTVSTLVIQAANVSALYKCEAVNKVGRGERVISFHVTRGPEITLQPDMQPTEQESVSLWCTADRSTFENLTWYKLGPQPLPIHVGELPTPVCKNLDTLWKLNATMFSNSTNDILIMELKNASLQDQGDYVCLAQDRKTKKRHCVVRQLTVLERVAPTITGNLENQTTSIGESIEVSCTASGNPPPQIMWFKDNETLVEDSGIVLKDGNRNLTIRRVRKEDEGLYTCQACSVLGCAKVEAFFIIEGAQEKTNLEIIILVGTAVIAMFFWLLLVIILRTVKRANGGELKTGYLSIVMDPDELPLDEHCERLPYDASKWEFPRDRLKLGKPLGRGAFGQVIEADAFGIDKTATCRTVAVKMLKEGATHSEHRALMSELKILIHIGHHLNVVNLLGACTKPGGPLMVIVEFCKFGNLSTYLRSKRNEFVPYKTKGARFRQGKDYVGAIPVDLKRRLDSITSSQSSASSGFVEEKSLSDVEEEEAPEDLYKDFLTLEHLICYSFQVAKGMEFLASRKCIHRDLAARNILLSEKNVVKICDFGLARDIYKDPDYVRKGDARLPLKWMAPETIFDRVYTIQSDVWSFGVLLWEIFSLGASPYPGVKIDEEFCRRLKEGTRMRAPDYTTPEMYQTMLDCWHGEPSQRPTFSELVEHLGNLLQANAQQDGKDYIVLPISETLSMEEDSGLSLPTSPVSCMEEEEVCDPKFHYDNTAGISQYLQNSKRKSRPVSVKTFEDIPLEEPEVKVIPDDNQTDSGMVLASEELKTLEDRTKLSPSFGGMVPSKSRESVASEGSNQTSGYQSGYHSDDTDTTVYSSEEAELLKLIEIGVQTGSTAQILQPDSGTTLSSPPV

SMILES: CCc1cc2c(cc1N1CCN(C3COC3)CC1)C(C)(C)c1[nH]c3cc(C#N)ccc3c1C2=O
- IC50 [1]: > 5000 nM

SMILES: COc1cc(N2CCC(N)CC2)ccc1Nc1ncc(Cl)c(-c2c[nH]c3ccccc23)n1
- Ki [2]: 0.75 nM
- IC50 (IMR-32): 2.8 nM
- IC50 (SH-SY5Y): 1.7 nM

SMILES: Cc1nn(C)c2c1Cc1cnc(N)c(c1)O[C@H](C)c1cc(F)ccc1C(=O)N(C)C2
- logD (physchem): 2.2

SMILES: CCc1cc2c(cc1N1CCC(N3CCOCC3)CC1)C(C)(C)c1[nH]c3cc(C#N)ccc3c1C2=O [ALECTINIB]
- IC50 (NCI-H3122 [3]): 9 nM

SMILES: C[C@@H]1CN(C(=O)c2ccc(NC(=O)c3cc(O[C@H](C)c4c(Cl)ccc(F)c4Cl)c(N)nn3)cc2)C[C@H](C)N1 [ENSARTINIB]
- IC50 [4]: 0.74 nM
- IC50 (NCI-H3122 [5]): 15 nM
- Ratio IC50 (NCI-H3122 [6]): 10
- IC50 [7]: < 0.4 nM
